US9023789B2, “Amylin analogs and pharmaceutical compositions thereof” (Novo Nordisk A/S, priority 2012, dated 2015)
In brackets after ≈: the same amount, converted by molar mass. Where two headings read alike, the source gives them in different places. Numbered stars: 1 amine (or outer) side, 2 acyl side, 3 side chain; on linkers, the order of the positions; unused ones are H or OH. Bridge positions count the residues as written; N and C are the ends. Side chains are listed from the residue outwards. Peptide text beside a SMILES is read from it. * marks the point of attachment. C20 diacid = O=C(O)CCCCCCCCCCCCCCCCCCC(=O)*; γGlu = O=C(O)[C@H](CCC(=O)[*:2])N[*:1]; AEEA = NCCOCCOCC(=O)O

Key:
[1] = ASSAY (IV) determination of solubility; format: physicochemical
Summary of the method: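 Dissolve polypeptide in water ([…] stock); combine 1:1 with each 100 mM buffer (glycylglycine pH 3.0/4.0/5.0; bistrispropane pH 6.0/6.5/7.0/7.5/8.0); hold 18 hours at room temperature; centrifuge; quantify polypeptide by UPLC.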

[2] = molecular target: T1, rat amylin receptor (rat calcitonin receptor + rat RAMP 3) (Rattus norvegicus, UniProt P32214+Q9JJ73); assay: ASSAY (VI) binding to the rat amylin receptor; details: for IC50: binding to rat amylin receptor, read-out: rAmylin-R bind IC50
T1 construct: expressed in transfected cells; host or cells: BHK tk'ts 13 (transient, FuGENE 6), membranes
T1 sequence (P32214 25-479 isoform P32214-2 limits assumed): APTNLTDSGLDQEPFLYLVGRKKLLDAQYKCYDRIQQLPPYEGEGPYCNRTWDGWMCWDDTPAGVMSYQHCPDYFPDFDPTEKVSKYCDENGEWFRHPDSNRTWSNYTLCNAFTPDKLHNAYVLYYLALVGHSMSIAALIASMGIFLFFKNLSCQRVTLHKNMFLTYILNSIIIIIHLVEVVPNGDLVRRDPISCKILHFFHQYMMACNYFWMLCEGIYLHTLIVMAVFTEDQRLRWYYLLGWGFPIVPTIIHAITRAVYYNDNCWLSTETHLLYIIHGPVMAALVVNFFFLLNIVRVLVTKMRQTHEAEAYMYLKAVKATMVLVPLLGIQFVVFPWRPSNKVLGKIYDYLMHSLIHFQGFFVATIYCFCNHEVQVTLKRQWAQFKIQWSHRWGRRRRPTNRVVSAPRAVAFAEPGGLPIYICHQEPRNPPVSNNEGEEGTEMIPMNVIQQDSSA
T1 sequence (Q9JJ73 23-147 partner): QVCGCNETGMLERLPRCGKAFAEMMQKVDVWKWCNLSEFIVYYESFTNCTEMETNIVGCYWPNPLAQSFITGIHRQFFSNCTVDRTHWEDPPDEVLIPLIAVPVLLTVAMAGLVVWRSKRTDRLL
Summary of the method: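 This assay measured binding to the rat amylin receptor. BHK tk′ts 13 cells were transiently transfected with the rat calcitonin receptor using FuGENE® 6 (Roche), following the manufacturer's recommendations. About 48 hours after transfection, the cells were harvested and membranes were prepared from them for the binding determination.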

[3] = molecular target: T2, human amylin 3(a) receptor (human calcitonin receptor + RAMP-3) in BHK570 cells (Homo sapiens, UniProt O60896+P30988); assay: ASSAY (II)a functional assay, human amylin receptor (CRE luciferase); format: cell-based; details: for EC50: human amylin receptor functional potency, assay (II), read-out: hAmylin-R funct. EC50
T2 construct: expressed in transfected cells
Summary of the method: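 Ligand exposure 3 h at 37 °C, 5% CO2 in DMEM with 10% FBS, 10 mM Hepes pH 7.4. cAMP-driven luciferase read by luminescence after 30 min LucLite at room temperature.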

rat calcitonin receptor = molecular target: T3, rat calcitonin receptor (Rattus norvegicus, UniProt P32214); assay: ASSAY (VIII) binding to the rat calcitonin receptor; details: Table 7, read-out: rCTR bind IC50
T3 construct: expressed in transfected cells; host or cells: BHK tk'ts 13 (transient, FuGENE 6), membranes
T3 sequence (P32214 25-479 isoform P32214-2 limits assumed): T1 sequence (P32214 25-479 isoform P32214-2 limits assumed)
Summary of the method: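 Rat calcitonin receptor is expressed transiently in BHK tk′ts 13 cells cultured in DMEM with 10% FBS. Roughly two days (approximately 48 hours) post-transfection, cells are harvested for membrane preparation.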

[4] = bistrispropane buffer, pH 6.5, read-out: Solubility pH 6.5 Concentration
[5] = bistrispropane buffer, pH 7.5, read-out: Solubility pH 7.5 Concentration
[6] = bistrispropane buffer, pH 6.0, read-out: Solubility pH 6.0 Concentration
[7] = bistrispropane buffer, pH 7.0, read-out: Solubility pH 7.0 Concentration
[8] = bistrispropane buffer, pH 8.0, read-out: Solubility pH 8.0 Concentration
[9] = glycylglycine buffer, pH 3.0, read-out: Solubility pH 3.0 Concentration
[10] = glycylglycine buffer, pH 4.0, read-out: Solubility pH 4.0 Concentration
[11] = glycylglycine buffer, pH 5.0, read-out: Solubility pH 5.0 Concentration
[12] = Table 7, rat binding selectivity, rCTR IC50 / rAmylin-R IC50
[13] = Table 7a (preferred compounds), rat binding selectivity, rCTR IC50 / rAmylin-R IC50
[14] = ratio of rCTR bind IC50 to rAmylin-R bind IC50
[15] = hCTR funct. EC50 divided by hAmylin-R funct. EC50
[16] = hCTR funct. EC50 over hAmylin-R funct. EC50
[17] = human functional selectivity: hCTR funct. EC50 / hAmylin-R funct. EC50

T2 sequence (O60896 24-148): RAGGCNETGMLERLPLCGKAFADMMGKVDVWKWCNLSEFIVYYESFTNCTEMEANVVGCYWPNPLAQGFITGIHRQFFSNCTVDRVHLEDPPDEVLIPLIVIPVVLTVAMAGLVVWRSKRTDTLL
T2 sequence (P30988 25-474): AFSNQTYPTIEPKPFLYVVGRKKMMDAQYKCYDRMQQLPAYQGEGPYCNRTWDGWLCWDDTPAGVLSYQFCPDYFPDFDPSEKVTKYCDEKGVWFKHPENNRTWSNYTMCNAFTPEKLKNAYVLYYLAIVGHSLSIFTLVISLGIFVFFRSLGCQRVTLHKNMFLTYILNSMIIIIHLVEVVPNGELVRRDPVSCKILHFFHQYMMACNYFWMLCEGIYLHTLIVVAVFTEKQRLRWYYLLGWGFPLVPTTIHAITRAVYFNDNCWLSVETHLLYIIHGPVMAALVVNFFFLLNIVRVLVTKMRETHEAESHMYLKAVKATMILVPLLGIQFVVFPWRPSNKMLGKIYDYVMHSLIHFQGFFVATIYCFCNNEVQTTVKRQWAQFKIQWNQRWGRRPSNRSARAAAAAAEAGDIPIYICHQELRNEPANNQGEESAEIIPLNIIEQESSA

solubility at 18 h [1, 4] | solubility at 18 h [1, 5] | solubility at 18 h [1, 6] | solubility at 18 h [1, 7] | solubility at 18 h [1, 8] | solubility at 18 h [1, 9] | solubility at 18 h [1, 10] | solubility at 18 h [1, 11] | IC50 ([2]; Table 7) | Ratio rCT/rAmylin binding [2, 12] | Ratio rCT/rAmylin binding [2, 13] | Ratio rCT/rAmylin binding [2, 14] | Ratio hCT/hAmylin funct. [3, 15] | Ratio hCT/hAmylin funct. [3, 16] | EC50 [3] | Ratio hCT/hAmylin funct. [3, 17] | IC50 (rat calcitonin receptor) | SMILES
≥ 200 µM | ≥ 200 µM | ≥ 200 µM | ≥ 200 µM | ≥ 200 µM | ≥ 200 µM | ≥ 200 µM | ≥ 200 µM | 0.558 nM | 201.3 | 201.3 | 201.3 | 17.0 | 17.0 | 0.116 nM | 17.0 | 112 nM | CC[C@H](C)[C@H](NC(=O)[C@H](C)NC(=O)CNC(=O)[C@H](Cc1ccccc1)NC(=O)[C@H](CC(N)=O)NC(=O)[C@@H]1CCCN1C(=O)[C@H](CO)NC(=O)[C@H](CO)NC(=O)[C@H](Cc1c[nH]cn1)NC(=O)[C@H](CCCNC(=N)N)NC(=O)[C@H](CC(C)C)NC(=O)[C@H](Cc1ccccc1)NC(=O)[C@H](CC(N)=O)NC(=O)[C@H](C)NC(=O)[C@H](CC(C)C)NC(=O)[C@H](CCCNC(=N)N)NC(=O)[C@H](CCC(N)=O)NC(=O)[C@@H](NC(=O)[C@H](C)NC(=O)[C@@H]1CSSC[C@H](NC(=O)[C@@H](N)CCCCNC(=O)CC[C@H](NC(=O)CCCCCCCCCCCCCCCCCCC(=O)O)C(=O)O)C(=O)N[C@@H](CC(N)=O)C(=O)N[C@@H]([C@@H](C)O)C(=O)N[C@@H](C)C(=O)N[C@@H]([C@@H](C)O)C(=O)N1)[C@@H](C)O)C(=O)N1CCC[C@H]1C(=O)N[C@@H](CO)C(=O)N[C@@H](CO)C(=O)N[C@H](C(=O)N[C@@H](CC(N)=O)C(=O)N[C@H](C(=O)NCC(=O)N[C@@H](CO)C(=O)N[C@@H](CC(N)=O)C(=O)N[C@H](C(=O)N[C@@H](Cc1ccc(O)cc1)C(N)=O)[C@@H](C)O)C(C)C)[C@@H](C)O [Example 48]
≥ 200 µM | ≥ 200 µM | ≥ 200 µM | ≥ 200 µM | 147 µM (≈ 668 µg/mL) | ≥ 200 µM | ≥ 200 µM | ≥ 200 µM | 0.04 nM | 131.4 | 131.4 | 131.4 | 5.0 | – | – | 5.0 | 5.26 nM | CC[C@H](C)[C@H](NC(=O)[C@H](C)NC(=O)CNC(=O)[C@H](Cc1ccccc1)NC(=O)[C@H](CC(N)=O)NC(=O)[C@@H]1CCCN1C(=O)[C@H](CO)NC(=O)[C@H](CO)NC(=O)[C@H](Cc1c[nH]cn1)NC(=O)[C@H](CCCNC(=N)N)NC(=O)[C@H](CC(C)C)NC(=O)[C@H](Cc1ccccc1)NC(=O)[C@H](CC(N)=O)NC(=O)[C@H](C)NC(=O)[C@H](CC(C)C)NC(=O)[C@H](CCCNC(=N)N)NC(=O)[C@H](CCC(N)=O)NC(=O)[C@@H](NC(=O)[C@H](C)NC(=O)[C@@H]1CSSC[C@H](NC(=O)[C@@H](N)CCCCNC(=O)COCCOCCNC(=O)CC[C@H](NC(=O)CCCCCCCCCCCCCCCCCCC(=O)O)C(=O)O)C(=O)N[C@@H](CC(N)=O)C(=O)N[C@@H]([C@@H](C)O)C(=O)N[C@@H](C)C(=O)N[C@@H]([C@@H](C)O)C(=O)N1)[C@@H](C)O)C(=O)N1CCC[C@H]1C(=O)N[C@@H](CO)C(=O)N1CCC[C@H]1C(=O)N[C@H](C(=O)N[C@@H](CC(N)=O)C(=O)N[C@H](C(=O)NCC(=O)N1CCC[C@H]1C(=O)N[C@@H](CC(N)=O)C(=O)N[C@H](C(=O)N[C@@H](Cc1ccc(O)cc1)C(N)=O)[C@@H](C)O)C(C)C)[C@@H](C)O [Example 56] (H-K([AEEA-γGlu-C20 diacid])CNTATCATQRLANFLRHSSPNFGAIPSPTNVGPNTY-NH2; disulfide 2-7 (inferred); N-terminus assumed)
≥ 200 µM | ≥ 200 µM | ≥ 200 µM | ≥ 200 µM | ≥ 200 µM | ≥ 200 µM | ≥ 200 µM | ≥ 200 µM | 1.86 nM | 32.4 | 32.4 | 32.4 | 6.8 | 6.8 | – | 6.8 | 60.1 nM | CC[C@H](C)[C@H](NC(=O)[C@H](C)NC(=O)CNC(=O)[C@H](Cc1ccccc1)NC(=O)[C@H](CC(N)=O)NC(=O)[C@@H]1CCCN1C(=O)[C@H](CO)NC(=O)[C@H](CO)NC(=O)[C@H](Cc1c[nH]cn1)NC(=O)[C@H](CCCNC(=N)N)NC(=O)[C@H](CC(C)C)NC(=O)[C@H](Cc1ccccc1)NC(=O)[C@H](CCC(=O)O)NC(=O)[C@H](C)NC(=O)[C@H](CC(C)C)NC(=O)[C@H](CCCNC(=N)N)NC(=O)[C@H](CCC(N)=O)NC(=O)[C@@H](NC(=O)[C@H](C)NC(=O)[C@@H]1CSSC[C@H](NC(=O)[C@H](CCCCN)NC(=O)CC[C@H](NC(=O)CCCCCCCCCCCCCCCCCCC(=O)O)C(=O)O)C(=O)N[C@@H](CC(N)=O)C(=O)N[C@@H]([C@@H](C)O)C(=O)N[C@@H](C)C(=O)N[C@@H]([C@@H](C)O)C(=O)N1)[C@@H](C)O)C(=O)N1CCC[C@H]1C(=O)N[C@@H](CO)C(=O)N[C@@H](CO)C(=O)N[C@H](C(=O)N[C@@H](CC(N)=O)C(=O)N[C@H](C(=O)NCC(=O)N[C@@H](CCCCN)C(=O)N[C@@H](CC(N)=O)C(=O)N[C@H](C(=O)N[C@@H](Cc1ccc(O)cc1)C(N)=O)[C@@H](C)O)C(C)C)[C@@H](C)O [Example 36] ({C20 diacid-γGlu}-KCNTATCATQRLAEFLRHSSPNFGAIPSSTNVGKNTY-NH2; disulfide 2-7 (inferred))
≥ 200 µM | ≥ 200 µM | ≥ 200 µM | ≥ 200 µM | ≥ 200 µM | ≥ 200 µM | ≥ 200 µM | ≥ 200 µM | 1.3 nM | 69.9 | 69.9 | 69.9 | 25.8 | 25.8 | 0.316 nM | 25.8 | 90.6 nM | CC[C@H](C)[C@H](NC(=O)[C@H](C)NC(=O)CNC(=O)[C@H](Cc1ccccc1)NC(=O)[C@H](CC(N)=O)NC(=O)[C@@H]1CCCN1C(=O)[C@H](CO)NC(=O)[C@H](CO)NC(=O)[C@H](Cc1c[nH]cn1)NC(=O)[C@H](CCCNC(=N)N)NC(=O)[C@H](CC(C)C)NC(=O)[C@H](Cc1ccccc1)NC(=O)[C@H](CC(N)=O)NC(=O)[C@H](C)NC(=O)[C@H](CC(C)C)NC(=O)[C@H](CCCNC(=N)N)NC(=O)[C@H](CCC(N)=O)NC(=O)[C@@H](NC(=O)[C@H](C)NC(=O)[C@@H]1CSSC[C@H](NC(=O)[C@@H](N)CCCCNC(=O)COCCOCCNC(=O)CC[C@H](NC(=O)CCCCCCCCCCCCCCCCCCC(=O)O)C(=O)O)C(=O)N[C@@H](CC(N)=O)C(=O)N[C@@H]([C@@H](C)O)C(=O)N[C@@H](C)C(=O)N[C@@H]([C@@H](C)O)C(=O)N1)[C@@H](C)O)C(=O)N1CCC[C@H]1C(=O)N[C@@H](CO)C(=O)N[C@@H](CO)C(=O)N[C@H](C(=O)N[C@@H](CC(N)=O)C(=O)N[C@H](C(=O)NCC(=O)N[C@@H](CCCNC(=N)N)C(=O)N[C@@H](CC(N)=O)C(=O)N[C@H](C(=O)N[C@@H](Cc1ccc(O)cc1)C(N)=O)[C@@H](C)O)C(C)C)[C@@H](C)O [Example 78] (H-K([AEEA-γGlu-C20 diacid])CNTATCATQRLANFLRHSSPNFGAIPSSTNVGRNTY-NH2; disulfide 2-7 (inferred))
